From ChEMBL document CHEMBL1128706, “Nonpeptidic potent HIV-1 protease inhibitors: (4-hydroxy-6-phenyl-2-oxo-2H- pyran-3-yl)thiomethanes that span P1-P2' subsites in a unique mode of active site binding” (J Med Chem, 1995) come the findings set out here.

Series [1] concerns the target Human immunodeficiency virus type 1 protease (Human immunodeficiency virus 1, UniProt Q72874). In words: Ability to inhibit purified recombinant HIV-1 protease.
Series [2] is described as follows: In vitro toxic concentration against HIV-1 IIIb H9-infected cells. Format: cell-based. Particulars: human, HIV-1 IIIb-infected H9 cells; read-out: TC50 (the source's name).
Series [3] deals with T1, Renin (Homo sapiens, UniProt P00797).
T1 sequence (P00797 whole entry): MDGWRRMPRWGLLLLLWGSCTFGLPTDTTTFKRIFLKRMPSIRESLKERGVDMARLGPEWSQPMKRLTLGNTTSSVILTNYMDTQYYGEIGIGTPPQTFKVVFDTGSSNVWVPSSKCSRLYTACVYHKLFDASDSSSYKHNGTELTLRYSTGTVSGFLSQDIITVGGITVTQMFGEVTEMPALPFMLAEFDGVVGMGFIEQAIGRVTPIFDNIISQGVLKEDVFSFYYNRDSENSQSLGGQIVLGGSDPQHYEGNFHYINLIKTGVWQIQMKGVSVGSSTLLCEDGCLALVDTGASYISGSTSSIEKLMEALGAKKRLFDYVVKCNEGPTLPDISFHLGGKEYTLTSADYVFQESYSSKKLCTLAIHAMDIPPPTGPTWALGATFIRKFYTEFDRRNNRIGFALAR
In words: Ability to inhibit the human recombinant renin aspartic protease enzyme.

The target of series [4] is T2, Cathepsin E (Homo sapiens, UniProt P14091).
T2 sequence (P14091 whole entry): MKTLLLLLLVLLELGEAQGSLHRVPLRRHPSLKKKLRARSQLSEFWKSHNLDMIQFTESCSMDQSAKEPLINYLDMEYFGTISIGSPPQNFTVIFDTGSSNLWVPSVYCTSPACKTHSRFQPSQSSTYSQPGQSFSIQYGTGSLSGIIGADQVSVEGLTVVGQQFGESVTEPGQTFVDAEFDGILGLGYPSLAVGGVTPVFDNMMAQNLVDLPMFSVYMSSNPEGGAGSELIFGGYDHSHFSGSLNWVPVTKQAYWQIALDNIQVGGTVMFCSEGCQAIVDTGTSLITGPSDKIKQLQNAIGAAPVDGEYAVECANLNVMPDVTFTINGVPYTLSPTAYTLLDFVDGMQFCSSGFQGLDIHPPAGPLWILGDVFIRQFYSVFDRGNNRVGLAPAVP
The series can be described thus: Ability to inhibit the human Native cathepsin E aspartic protease enzyme.

Series [5] addresses Cathepsin D (Homo sapiens, UniProt P07339). In words: Ability to inhibit the human Native cathepsin D aspartic protease enzyme.

Bounds are passed on as bounds.

Cathepsin D, sequence (P07339 65-162 limits assumed): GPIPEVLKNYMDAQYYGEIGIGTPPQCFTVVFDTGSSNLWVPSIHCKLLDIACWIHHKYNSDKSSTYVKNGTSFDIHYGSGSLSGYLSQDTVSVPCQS
Cathepsin D, sequence (P07339 169-412 limits assumed): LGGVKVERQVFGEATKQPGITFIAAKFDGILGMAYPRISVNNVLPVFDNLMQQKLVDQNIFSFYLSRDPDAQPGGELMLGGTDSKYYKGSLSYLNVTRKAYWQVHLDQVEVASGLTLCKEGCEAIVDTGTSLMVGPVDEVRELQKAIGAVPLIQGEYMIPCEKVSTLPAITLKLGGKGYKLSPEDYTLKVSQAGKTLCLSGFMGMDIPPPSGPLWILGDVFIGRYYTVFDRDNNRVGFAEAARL

Broadly, the IC50 is the concentration at which inhibition is half-maximal. In the case of `O=c1cc(-c2ccccc2)oc(O)c1C(CC1CCCC1)SC1CCCCC1` (stereo unspecified), the IC50 in series [1] amounted to 541 nM.
As usually defined, the Ki is the dissociation constant of the complex between target and ligand, obtained from inhibition or displacement. Consider `O=c1cc(-c2ccccc2)oc(O)c1C(CC1CC1)SC1CCCC1` (stereo unspecified), for which the Ki in series [1] worked out at 0.069 nM.
Regarding `CC(C)CC(SC1CCCC1)c1c(O)cc(-c2ccccc2)oc1=O` (stereo unspecified), the CC50 in series [2] is 28 µM. Further, the IC50 in series [1] was 58 nM; in series [3] it was above 10 µM; in series [4] it was above 40 µM; in series [5], above 40 µM.
With `CC(C)CC(Sc1ccccc1)c1c(O)cc(-c2ccccc2)oc1=O` (stereo unspecified), in series [1], the IC50 amounted to 410 nM.
Same read-out and setting: the same measure for `CC(C)(C)CC(SC1CCCCC1)c1c(O)cc(-c2ccccc2)oc1=O` (stereo unspecified): 300 nM.
`O=c1cc(-c2ccccc2)oc(O)c1C(CC1CC1)SCc1ccccc1` (stereo unspecified): in series [2], the CC50 came to 68 µM. For the same molecule, the IC50 in series [1] was 84 nM; in series [3], above 10 µM; in series [4], above 40 µM; in series [5], above 40 µM.
As to `CC(C)CCC(Sc1ccccc1)c1c(O)cc(-c2ccccc2)oc1=O` (stereo unspecified), the IC50 in series [1] was determined as 390 nM.
In the case of `CC(C)CC(SCc1ccccc1)c1c(O)cc(-c2ccccc2)oc1=O` (stereo unspecified), the CC50 in series [2] is 67 µM. In series [1], the IC50 was 260 nM.
For `O=c1cc(-c2ccccc2)oc(O)c1C(SCc1ccccc1)c1ccccc1` (stereo unspecified), in that order: 61 µM and 480 nM.
Consider `O=c1cc(-c2ccccc2)oc(O)c1C(Sc1ccc2ccccc2c1)c1ccccc1` (stereo unspecified), for which the IC50 in series [1] was 2450 nM.
For the molecule `O=c1cc(-c2ccccc2)oc(O)c1C(Sc1ccccc1)c1ccccc1` (stereo unspecified), the IC50 in series [1] worked out at 780 nM.
As for `O=c1cc(-c2ccccc2)oc(O)c1C(Sc1ccccc1)C1CCCCC1` (stereo unspecified), the IC50 in series [1] was determined as 2440 nM.
With `CC(C)CC(SCC1CCCCC1)c1c(O)cc(-c2ccccc2)oc1=O` (stereo unspecified), the IC50 in series [1] was found to be 848 nM.
As for `O=c1cc(-c2ccccc2)oc(O)c1C(CC1CC1)SC1CCCCC1` (stereo unspecified), in series [2], the CC50 was 67 µM. The IC50 in series [1] turned out to be 147 nM.
Take `O=c1cc(-c2ccccc2)oc(O)c1C(Sc1ccccc1)c1ccc2ccccc2c1` (stereo unspecified): the IC50 in series [1] is 7820 nM.
Take `O=c1cc(-c2ccccc2)oc(O)c1C(SC1CCCC1)C1CCCC1` (stereo unspecified): in series [2], the CC50 was 70 µM. The IC50 in series [1] was 225 nM.
With `CC(C)CC(SC1CCCCC1)c1c(O)cc(-c2ccccc2)oc1=O` (stereo unspecified), the IC50 in series [1] came out at 320 nM.
Still for that read-out and setting: the result for `O=c1cc(-c2ccccc2)oc(O)c1C(SC1CCCCC1)c1ccccc1` (stereo unspecified) reads 480 nM; that for `O=c1cc(-c2ccccc2)oc(O)c1CSc1ccccc1`, 84300 nM.
